Results on 25 compounds are retold here after patent US8822446B2, “Pyrrolopyridine inhibitors of kinases” (AbbVie Inc., priority 2010, dated 2014).

A value given as a limit tells only on which side of the number the result lay.

T1 sequence (O00311 whole entry): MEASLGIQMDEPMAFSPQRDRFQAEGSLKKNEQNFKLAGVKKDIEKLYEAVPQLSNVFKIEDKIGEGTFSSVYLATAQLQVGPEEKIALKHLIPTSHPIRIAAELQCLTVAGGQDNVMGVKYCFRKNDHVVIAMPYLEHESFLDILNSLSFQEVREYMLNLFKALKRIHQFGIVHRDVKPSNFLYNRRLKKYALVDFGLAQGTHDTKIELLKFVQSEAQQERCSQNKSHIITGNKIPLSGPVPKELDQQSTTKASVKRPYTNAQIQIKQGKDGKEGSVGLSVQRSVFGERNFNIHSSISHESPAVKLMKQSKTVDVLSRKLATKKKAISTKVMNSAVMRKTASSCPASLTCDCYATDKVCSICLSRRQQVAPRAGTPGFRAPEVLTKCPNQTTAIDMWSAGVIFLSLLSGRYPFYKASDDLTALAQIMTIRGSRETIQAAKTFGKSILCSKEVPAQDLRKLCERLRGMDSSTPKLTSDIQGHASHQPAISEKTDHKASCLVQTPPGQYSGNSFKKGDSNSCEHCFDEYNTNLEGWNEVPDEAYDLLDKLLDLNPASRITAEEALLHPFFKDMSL
T1 sequence (Q9UBU7 whole entry partner): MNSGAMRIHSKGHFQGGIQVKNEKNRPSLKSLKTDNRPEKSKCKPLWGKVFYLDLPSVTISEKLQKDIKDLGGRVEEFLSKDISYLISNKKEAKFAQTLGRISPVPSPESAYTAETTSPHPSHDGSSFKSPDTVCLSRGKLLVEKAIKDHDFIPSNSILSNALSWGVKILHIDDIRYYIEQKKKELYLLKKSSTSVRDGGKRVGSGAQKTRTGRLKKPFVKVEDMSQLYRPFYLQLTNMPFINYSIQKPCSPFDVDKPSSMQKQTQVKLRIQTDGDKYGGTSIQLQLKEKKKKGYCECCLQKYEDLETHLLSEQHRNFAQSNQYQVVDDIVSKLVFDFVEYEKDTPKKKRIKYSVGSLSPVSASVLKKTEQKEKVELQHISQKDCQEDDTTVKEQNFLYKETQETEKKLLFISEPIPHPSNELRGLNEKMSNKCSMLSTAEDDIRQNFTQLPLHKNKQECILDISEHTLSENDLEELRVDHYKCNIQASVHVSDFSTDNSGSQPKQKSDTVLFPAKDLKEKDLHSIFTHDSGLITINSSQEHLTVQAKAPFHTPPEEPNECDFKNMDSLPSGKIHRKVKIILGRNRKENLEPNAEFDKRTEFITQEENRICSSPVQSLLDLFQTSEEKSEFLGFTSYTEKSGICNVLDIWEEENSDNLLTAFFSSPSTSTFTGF

The assay concerns the target T1, Cdc7 (BEV coexpressed huCDC7/DBF4) (Homo sapiens, UniProt O00311).
T1 construct: made in house; host or cells: baculovirus expression vector (BEV) co-expression
Put plainly: Cdc7 enzyme inhibition assay ([33P]-ATP, biotinylated peptide substrate, FlashPlate). It counts as biochemical. The conditions noted are these: Ki generated from IC50 assuming ATP-competitive inhibition; 1 μM ATP, apparent ATP Km 0.7 μM; 1 hr reaction. As to the method:
This example describes the assays that may be used to identify compounds having kinase activity.
Cdc7 (BEV coexpressed huCDC7/DBF4) is prepared internally. Cdc7 assays are conducted as follows with final concentrations as listed. In 384-well v-bottom polypropylene plates, 6 μL compound (2% DMSO), is mixed with 6 μL of Cdc7 (2 ug/mL), and Jerini peptide substrate A-A11 (biotin-C6linker-[…]) (2 μM), followed by immediate initiation with 6 μL […] (1 μM, 20 mCi/μmol) using a reaction buffer comprising 25 mM HEPES, pH 7.5, 1 mM DTT, 10 mM MgCl2, 100 μM, Na3VO4, 0.075 mg/ml Triton X-100. Reactions are quenched after 1 hr by the addition of 90 μL stop buffer (50 mM EDTA, 2M NaCl).
Table 1 depicts enzyme inhibition data (Ki) for exemplary compounds.
Consider `O=c1cc(-c2c[nH]c3ncccc23)cc(-c2ccc3c(c2)OCO3)[nH]1` [Example 39, 6-(1,3-benzodioxol-5-yl)-4-(1H-pyrrolo[2,3-b]pyridin-3-yl)pyridin-2(1H)-one], for which the Ki is below 10 nM. In the case of `O=c1cc(-c2c[nH]c3ncccc23)cc(-c2ccsc2)[nH]1` [Example 40, 4-(1H-pyrrolo[2,3-b]pyridin-3-yl)-6-(3-thienyl)pyridin-2(1H)-one], the Ki was below 10 nM. As for `O=c1cc(-c2c[nH]c3ncccc23)cc(-c2ccc3ccccc3c2)[nH]1` [Example 41, 6-(2-naphthyl)-4-(1H-pyrrolo[2,3-b]pyridin-3-yl)pyridin-2(1H)-one], the Ki is below 10 nM. Then `O=c1cc(-c2c[nH]c3ncccc23)cc(-c2cccc(Cl)c2)[nH]1` [Example 42, 6-(3-chlorophenyl)-4-(1H-pyrrolo[2,3-b]pyridin-3-yl)pyridin-2(1H)-one], with below 10 nM. For `COc1cccc(-c2cc(-c3c[nH]c4ncccc34)cc(=O)[nH]2)c1OC` [Example 43, 6-(2,3-dimethoxyphenyl)-4-(1H-pyrrolo[2,3-b]pyridin-3-yl)pyridin-2(1H)-one], the Ki is below 10 nM. Take `COc1cccc(-c2cc(-c3c[nH]c4ncccc34)cc(=O)[nH]2)c1F` [Example 44, 6-(2-fluoro-3-methoxyphenyl)-4-(1H-pyrrolo[2,3-b]pyridin-3-yl)pyridin-2(1H)-one]: the Ki is below 10 nM. On to `O=c1cc(-c2c[nH]c3ncccc23)cc(-c2ccc(Cl)cc2F)[nH]1` [Example 45, 6-(4-chloro-2-fluorophenyl)-4-(1H-pyrrolo[2,3-b]pyridin-3-yl)pyridin-2(1H)-one], for which the Ki is below 10 nM. In the case of `COc1ccc(C(F)(F)F)cc1-c1cc(-c2c[nH]c3ncccc23)cc(=O)[nH]1` [Example 46, 6-[2-methoxy-5-(trifluoromethyl)phenyl]-4-(1H-pyrrolo[2,3-b]pyridin-3-yl)pyridin-2(1H)-one], the Ki was below 10 nM. As to `COc1ncccc1-c1cc(-c2c[nH]c3ncccc23)cc(=O)[nH]1` [Example 47, 2′-methoxy-4-(1H-pyrrolo[2,3-b]pyridin-3-yl)-2,3′-bipyridin-6(1H)-one], the Ki was below 10 nM. `Cc1c(Cl)cccc1-c1cc(-c2c[nH]c3ncccc23)cc(=O)[nH]1` [Example 48, 6-(3-chloro-2-methylphenyl)-4-(1H-pyrrolo[2,3-b]pyridin-3-yl)pyridin-2(1H)-one]: the Ki was below 10 nM. Take `COc1nccc(-c2cc(-c3c[nH]c4ncccc34)cc(=O)[nH]2)c1Cl` [Example 49, 3′-chloro-2′-methoxy-4-(1H-pyrrolo[2,3-b]pyridin-3-yl)-2,4′-bipyridin-6(1H)-one]: the Ki is below 10 nM. As for `O=c1cc(-c2c[nH]c3ncccc23)cc(-c2cccc(N3CCOCC3)c2)[nH]1` [Example 50, 6-[3-(morpholin-4-yl)phenyl]-4-(1H-pyrrolo[2,3-b]pyridin-3-yl)pyridin-2(1H)-one], the figure is below 10 nM; as for `CS(=O)(=O)c1cccc(-c2cc(-c3c[nH]c4ncccc34)cc(=O)[nH]2)c1` [Example 51, 6-[3-(methylsulfonyl)phenyl]-4-(1H-pyrrolo[2,3-b]pyridin-3-yl)pyridin-2(1H)-one], below 10 nM; as for `O=c1cc(-c2c[nH]c3ncccc23)cc(-c2cn[nH]c2)[nH]1` [Example 52, 6-(1H-pyrazol-4-yl)-4-(1H-pyrrolo[2,3-b]pyridin-3-yl)pyridin-2(1H)-one], below 10 nM. With `Cc1ncccc1-c1cc(-c2c[nH]c3ncccc23)cc(=O)[nH]1` [Example 53, 2′-methyl-4-(1H-pyrrolo[2,3-b]pyridin-3-yl)-2,3′-bipyridin-6(1H)-one], the Ki was below 10 nM. Consider `COc1cccc(Nc2cc(-c3c[nH]c4ncccc34)cc(=O)[nH]2)c1` [Example 54, 6-[(3-methoxyphenyl)amino]-4-(1H-pyrrolo[2,3-b]pyridin-3-yl)pyridin-2(1H)-one], for which the Ki is below 10 nM. For the compound `O=c1cc(-c2c[nH]c3ncccc23)cc(Nc2ccccc2)[nH]1` [Example 55, 6-anilino-4-(1H-pyrrolo[2,3-b]pyridin-3-yl)pyridin-2(1H)-one], the Ki was below 10 nM.

Consider `N[C@H]1CC[C@H](Nc2cc(-c3c[nH]c4ncccc34)cc(=O)[nH]2)CC1` [Example 56, 6-[(trans-4-aminocyclohexyl)amino]-4-(1H-pyrrolo[2,3-b]pyridin-3-yl)pyridin-2(1H)-one], for which the Ki is below 10 nM. Then `O=c1cc(-c2c[nH]c3ncccc23)cc(N[C@H]2CC[C@H](NS(=O)(=O)C3CC3)CC2)[nH]1` [Example 57, N-(trans-4-{[6-oxo-4-(1H-pyrrolo[2,3-b]pyridin-3-yl)-1,6-dihydropyridin-2-yl]amino}cyclohexyl)cyclopropanesulfonamide], with below 10 nM; and `O=C(N[C@H]1CC[C@H](Nc2cc(-c3c[nH]c4ncccc34)cc(=O)[nH]2)CC1)C1CC1` [Example 58, N-(trans-4-{[6-oxo-4-(1H-pyrrolo[2,3-b]pyridin-3-yl)-1,6-dihydropyridin-2-yl]amino}cyclohexyl)cyclopropanecarboxamide], with below 10 nM. `O=C(N[C@H]1CC[C@H](Nc2cc(-c3c[nH]c4ncccc34)cc(=O)[nH]2)CC1)C1CN(Cc2ccc(F)cc2)C1` [Example 59, 1-(4-fluorobenzyl)-N-(trans-4-{[6-oxo-4-(1H-pyrrolo[2,3-b]pyridin-3-yl)-1,6-dihydropyridin-2-yl]amino}cyclohexyl)azetidine-3-carboxamide]: the Ki was below 10 nM. As for `Cc1ccc(-c2nc(-c3c[nH]c4ncccc34)cc(=O)[nH]2)cc1` [Example 60, 2-(4-methylphenyl)-6-(1H-pyrrolo[2,3-b]pyridin-3-yl)pyrimidin-4(3H)-one], the figure is below 10 nM. `Cc1cccc(-c2nc(-c3c[nH]c4ncccc34)cc(=O)[nH]2)c1` [Example 61, 2-(3-methylphenyl)-6-(1H-pyrrolo[2,3-b]pyridin-3-yl)pyrimidin-4(3H)-one]: the Ki was below 10 nM. In the case of `Cc1cccc(-c2nc(-c3c[nH]c4ncccc34)cc(=O)[nH]2)c1C` [Example 62, 2-(2,3-dimethylphenyl)-6-(1H-pyrrolo[2,3-b]pyridin-3-yl)pyrimidin-4(3H)-one], the Ki was below 10 nM. `NCCCOc1cccc(CNc2nc(-c3c[nH]c4ncccc34)cc(=O)[nH]2)c1` [Example 63, 2-{[3-(3-aminopropoxy)benzyl]amino}-6-(1H-pyrrolo[2,3-b]pyridin-3-yl)pyrimidin-4(3H)-one]: the Ki is below 10 nM.
